# Assay results: publication PMC8400955 (Pharmaceuticals, 2021)
# “And” between values parts separate entries of the source, which are not always exact repeats. Equal values may be shown once.
# Assays:
# [1] = Metabolic stability in rat hepatocytes; format: in vitro ADME
# Experimental: (§1) Hepatocytes of humans (#X008001), dogs (#M00205), rats (#M00005), and mice (#M005052) were purchased from BioIVT, NY, USA. Monkey hepatocytes were procured from RILD, Shanghai, China. The metabolic stability of ZB716 in human, monkey, dog, rat and mouse hepatocytes was investigated by incubating ZB716 with human, monkey, dog, rat, and mouse hepatocytes (0.5 × 10^6 cells/mL), or with incubation medium only.
# (§2) parent disappearance vs. incubation time curve.
# (§3) Scaled-up Clint = kV/N × Scaling Factor
# (§4) metabolite formed during the reaction.
# [2] = test system: rat hepatocytes; assay: Metabolic stability in rat hepatocytes; format: in vitro ADME; conditions: 1 μM
# Experimental: as §1, §2, §3, §4
# [3] = test system: human liver microsomes; assay: ZB716 remaining in human liver microsomes with and without CYP-specific chemical inhibitors; conditions: HLM
# [4] = Metabolic stability in monkey hepatocytes; format: in vitro ADME
# Experimental: as §1, §2, §3, §4
# [5] = test system: monkey hepatocytes; assay: Metabolic stability in monkey hepatocytes; format: in vitro ADME; conditions: 1 μM
# Experimental: as §1, §2, §3, §4
# [6] = target: T1, CYP1A2 (Homo sapiens, UniProt P05177); assay: CYP phenotyping, recombinant CYP1A2
# T1 sequence (P05177 1-516): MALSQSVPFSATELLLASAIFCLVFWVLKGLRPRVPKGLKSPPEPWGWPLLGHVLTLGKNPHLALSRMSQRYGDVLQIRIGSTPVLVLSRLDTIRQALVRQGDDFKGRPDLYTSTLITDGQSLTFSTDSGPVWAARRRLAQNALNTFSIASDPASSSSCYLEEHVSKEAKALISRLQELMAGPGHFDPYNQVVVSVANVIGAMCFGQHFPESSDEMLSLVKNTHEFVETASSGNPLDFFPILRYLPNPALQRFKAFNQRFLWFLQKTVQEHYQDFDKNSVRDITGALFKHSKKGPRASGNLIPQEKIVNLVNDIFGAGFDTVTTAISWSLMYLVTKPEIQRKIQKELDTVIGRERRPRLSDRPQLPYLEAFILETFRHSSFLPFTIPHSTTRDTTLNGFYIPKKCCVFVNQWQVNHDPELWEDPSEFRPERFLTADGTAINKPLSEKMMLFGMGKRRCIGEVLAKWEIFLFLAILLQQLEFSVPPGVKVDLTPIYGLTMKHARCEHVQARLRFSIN
# [7] = target: T2, CYP2C8 (Homo sapiens, UniProt P10632); assay: CYP inhibition in human liver microsomes, CYP2C8; format: in vitro ADME; conditions: HLM, marker substrate Amodiaquine
# T2 sequence (P10632 1-490): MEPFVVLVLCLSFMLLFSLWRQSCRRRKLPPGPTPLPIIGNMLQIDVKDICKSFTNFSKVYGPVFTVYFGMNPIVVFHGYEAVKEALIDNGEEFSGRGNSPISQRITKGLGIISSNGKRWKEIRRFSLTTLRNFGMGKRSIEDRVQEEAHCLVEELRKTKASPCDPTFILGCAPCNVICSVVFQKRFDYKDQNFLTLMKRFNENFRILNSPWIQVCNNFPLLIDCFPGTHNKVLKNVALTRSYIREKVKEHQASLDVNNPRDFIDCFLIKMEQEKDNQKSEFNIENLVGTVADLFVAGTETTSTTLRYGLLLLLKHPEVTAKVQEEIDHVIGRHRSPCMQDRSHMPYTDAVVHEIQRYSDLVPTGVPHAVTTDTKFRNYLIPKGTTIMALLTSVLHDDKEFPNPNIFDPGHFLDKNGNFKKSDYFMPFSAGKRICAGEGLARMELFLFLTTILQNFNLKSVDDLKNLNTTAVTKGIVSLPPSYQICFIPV
# Experimental: . The inhibition of CYP2B6 and 3A4 (when midazolam was used as the substrate) by ZB716 was not observed. The inhibitory potential of ZB716 on human CYP enzyme activities appears relatively low.
# The final concentrations of ZB716 in the incubation system were 0, 0.05, 0.15, 0.5, 1.5, 5, and 15 µM (final organic solvent concentration ≤ 1%). […] . […] The concentrations of the isoform-specific metabolites derived from marker substrates were measured by UPLC–MS/MS. The IC50 values were calculated from the percentages of the rate of the metabolite formation relative to non-inhibited controls vs. the concentrations of ZB716 or positive control inhibitors. All incubations were performed in triplicate. The mean of the enzyme activity (% of non-inhibited control) for each concentration was plotted against the log inhibitor concentration, and fitted to an IC50 curve.
# [8] = test system: CYP1A2; assay: CYP induction (enzyme activity) in cryopreserved human hepatocytes, CYP1A2; conditions: for fold induction at 72 h, 0.15 µM / fold induction at 72 h, 1.5 µM / fold induction at 72 h, 5 µM / fold induction at 72 h, 15 µM: human, plated cryopreserved human hepatocytes
# [9] = target: CYP2A6 (Homo sapiens, UniProt P11509); assay: CYP phenotyping, recombinant CYP2A6
# CYP2A6, sequence (P11509 whole entry): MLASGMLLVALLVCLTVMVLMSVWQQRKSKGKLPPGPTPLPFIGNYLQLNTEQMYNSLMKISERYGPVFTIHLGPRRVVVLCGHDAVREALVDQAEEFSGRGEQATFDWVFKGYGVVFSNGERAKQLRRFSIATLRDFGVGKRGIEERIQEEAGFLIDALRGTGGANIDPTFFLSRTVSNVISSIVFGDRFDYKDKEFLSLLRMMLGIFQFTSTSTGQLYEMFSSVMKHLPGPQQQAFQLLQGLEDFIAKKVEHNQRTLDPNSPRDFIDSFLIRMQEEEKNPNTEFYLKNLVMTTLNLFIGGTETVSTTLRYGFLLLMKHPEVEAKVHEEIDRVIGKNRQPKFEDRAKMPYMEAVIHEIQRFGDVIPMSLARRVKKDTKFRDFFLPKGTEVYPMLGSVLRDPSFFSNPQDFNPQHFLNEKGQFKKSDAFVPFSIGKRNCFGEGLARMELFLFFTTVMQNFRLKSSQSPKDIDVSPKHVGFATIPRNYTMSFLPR
# [10] = read-out: Estimated In Vitro t1/2
# [11] = 2 µM ZB716, with CYP1A2 inhibitor Furafylline
# [12] = 2 µM ZB716, with CYP2A6 inhibitor Tranylcypromine
# [13] = 2 µM ZB716, with CYP2B6 inhibitor Ticlopidine
# [14] = 2 µM ZB716, with CYP2C8 inhibitor Montelukast
# [15] = 2 µM ZB716, with CYP2C9 inhibitor Sulfaphenazole
# [16] = 2 µM ZB716, with CYP2C19 inhibitor N-3-benzylnirvanol
# [17] = 2 µM ZB716, with CYP2D6 inhibitor Quinidine
# [18] = 2 µM ZB716, with CYP3A inhibitor Ketoconazole
compound,measurement,setting,value
"C[C@]12CC[C@@H]3c4ccc(B(O)O)cc4C[C@@H](CCCCCCCCC[S+]([O-])CCCC(F)(F)C(F)(F)F)[C@H]3[C@@H]1CC[C@@H]2O (stereo partly drawn) [ZB716, fulvestrant-3-boronic acid]",half-life at 1 μM,[1]; [10],28.4 ± 0.9 min
same,hepatocyte CLint at 1 μM,[1]; read-out: In Vitro Clint,48.7 ± 1.5 µL/min/1e6 cells
same,CLint scaled at 1 μM,[1]; read-out: Scaled-Up Clint,228 ± 7 mL/min/kg
same,Remaining at 120 min,[2],5.19 ± 0.32%
same,Inhibition %,"[3]; 2 µM ZB716, Without Inhibitor",0.00%
same,Remaining Percentage (%) at 15 min,"[3]; 2 µM ZB716, Without Inhibitor",18.7 ± 1.2%
same,Remaining Percentage (%) at 60 min,"[3]; 2 µM ZB716, Without Inhibitor",5.74 ± 0.52%
same,Inhibition %,[3]; [11],−48.9%
same,Remaining Percentage (%) at 15 min,[3]; [11],8.24 ± 0.80%
same,Remaining Percentage (%) at 60 min,[3]; [11],1.43 ± 0.51%
same,Inhibition %,[3]; [12],−14.4%
same,Remaining Percentage (%) at 15 min,[3]; [12],14.8 ± 2.5%
same,Remaining Percentage (%) at 60 min,[3]; [12],5.24 ± 2.31%
same,Inhibition %,[3]; [13],−9.46%
same,Remaining Percentage (%) at 15 min,[3]; [13],15.9 ± 0.8%
same,Remaining Percentage (%) at 60 min,[3]; [13],2.09 ± 0.23%
same,Inhibition %,[3]; [14],−15.1%
same,Remaining Percentage (%) at 15 min,[3]; [14],14.6 ± 2.4%
same,Remaining Percentage (%) at 60 min,[3]; [14],3.41 ± 0.30%
same,Inhibition %,[3]; [15],−31.8%
same,Remaining Percentage (%) at 15 min,[3]; [15],10.9 ± 0.1%
same,Remaining Percentage (%) at 60 min,[3]; [15],2.31 ± 0.18%
same,Inhibition %,[3]; [16],−22.5%
same,Remaining Percentage (%) at 15 min,[3]; [16],12.8 ± 1.2%
same,Remaining Percentage (%) at 60 min,[3]; [16],3.10 ± 0.44%
same,Inhibition %,[3]; [17],74.7%
same,Remaining Percentage (%) at 15 min,[3]; [17],65.6% and 65.6 ± 6.0%
same,Inhibition %,[3]; [18],88.2%
same,Remaining Percentage (%) at 15 min,[3]; [18],74.4% and 74.4 ± 5.8%
same,Remaining Percentage (%) at 60 min,[3]; [18],43.4 ± 2.8%
same,half-life at 1 μM,[4]; [10],27.6 ± 2 min
same,hepatocyte CLint at 1 μM,[4]; read-out: In Vitro Clint,50.3 ± 3.6 µL/min/1e6 cells
same,CLint scaled at 1 μM,[4]; read-out: Scaled-Up Clint,181 ± 13 mL/min/kg
same,Remaining at 120 min,[5],4.41 ± 0.46%
same,half-life at 2 µM,[6]; human,16.2 ± 2.2 min
same,Clint,"[6]; recombinant CYP1A2, 2 µM ZB716",0.866 ± 0.120 µL/min/pmol CYP
same,IC50,[7],6.27 µM
same,Percent of Control,"[8]; donor one, 0.15 µM",2.92%
same,Percent of Control,"[8]; donor one, 1.5 µM",18.4%
same,Percent of Control,"[8]; donor one, 5 µM",73.6%
same,Percent of Control,"[8]; donor one, 15 µM",80.0%
same,Percent of Control,"[8]; donor three, 0.15 µM",3.78%
same,Percent of Control,"[8]; donor three, 1.5 µM",45.0%
same,Percent of Control,"[8]; donor three, 5 µM",41.6%
same,Percent of Control,"[8]; donor three, 15 µM",20.3%
same,Percent of Control,"[8]; donor two, 0.15 µM",0.777%
same,Percent of Control,"[8]; donor two, 1.5 µM",8.38%
same,Percent of Control,"[8]; donor two, 5 µM",17.4%
same,Percent of Control,"[8]; donor two, 15 µM",12.6%
same,"fold induction at 72 h, 0.15 µM","[8]; donor one, 0.15 µM",1.24 ± 0.1
same,"fold induction at 72 h, 1.5 µM","[8]; donor one, 1.5 µM",2.52 ± 0.17
same,"fold induction at 72 h, 5 µM","[8]; donor one, 5 µM",7.09 ± 0.78
same,"fold induction at 72 h, 15 µM","[8]; donor one, 15 µM",7.62 ± 1.63
same,"fold induction at 72 h, 0.15 µM","[8]; donor three, 0.15 µM",1.2 ± 0.22
same,"fold induction at 72 h, 1.5 µM","[8]; donor three, 1.5 µM",3.42 ± 0.2
same,"fold induction at 72 h, 5 µM","[8]; donor three, 5 µM",3.24 ± 0.53
same,"fold induction at 72 h, 15 µM","[8]; donor three, 15 µM",2.09 ± 0.49
same,"fold induction at 72 h, 0.15 µM","[8]; donor two, 0.15 µM",1.11 ± 0.05
same,"fold induction at 72 h, 1.5 µM","[8]; donor two, 1.5 µM",2.17 ± 0.03
same,"fold induction at 72 h, 5 µM","[8]; donor two, 5 µM",3.44 ± 0.18
same,"fold induction at 72 h, 15 µM","[8]; donor two, 15 µM",2.77 ± 0.34
same,half-life at 2 µM,[9]; human,16.6 ± 0.6 min
same,Clint,"[9]; recombinant CYP2A6, 2 µM ZB716",0.836 ± 0.028 µL/min/pmol CYP
